Among the test systems are SNB-19 CNS; HCC-2998 colon; T-47D breast; NCI-H226 lung; UO-31 renal; HOP-92 NSCLC; CCRF-CEM leukemia.
Common to all, as to test: inhibition of tumour cell growth, NCI panel, 48 h

Experimental findings from PubChem BioAssay (NCI) are described below.

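Assay format: 96-well plates, 48-hour exposure. TGI: concentration producing complete growth inhibition.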 Where a SMILES comes first, the peptide text is derived from it. The star is where a group is joined. Ethyl(2-NMe3+) = C[N+](C)(C)CC*; Boc = CC(C)(C)OC(=O)*

For `COc1cc([C@H]2CC(=O)C[C@H](c3cc(OC)c(OC)c(OC)c3)C23C(=O)c2ccccc2C3=O)cc(OC)c1OC`, the TGI in the experiment on SNB-19 CNS, with HCC-2998 colon, in the experiment on T-47D breast, with NCI-H226 lung, in the experiment with UO-31 renal and in the experiment with HOP-92 NSCLC was more than 100 µM in each case.
Regarding `Cc1ccc(C2SC(N)=Nc3c2c(C)nn3C(=O)c2ccccc2O)cc1` (stereo not given), the TGI in the experiment with SNB-19 CNS was more than 10 µM; with T-47D breast, more than 10 µM; with CCRF-CEM leukemia it was more than 10 µM; in the experiment on NCI-H226 lung it was more than 10 µM; with UO-31 renal, more than 10 µM; in the experiment with HOP-92 NSCLC, 5.02 µM.
For `CC1=C(C(=O)N(C(C)C)C(C)C)CC(C(=O)N(C(C)C)C(C)C)=C(C)N1`, the TGI with SNB-19 CNS, with HCC-2998 colon, with T-47D breast, in the experiment on CCRF-CEM leukemia, in the experiment with NCI-H226 lung and in the experiment on UO-31 renal was more than 100 µM each time. The same molecule returned a TGI in the experiment with HOP-92 NSCLC of more than 100 µM.
As to `COc1c(Br)cc(/C=C(\C#N)c2cccnc2)cc1Br`, the TGI in the experiment on SNB-19 CNS is more than 100 µM; in the experiment with HCC-2998 colon, more than 100 µM; in the experiment on CCRF-CEM leukemia, more than 100 µM; in the experiment on NCI-H226 lung it was more than 100 µM; in the experiment with UO-31 renal, more than 100 µM; in the experiment on HOP-92 NSCLC, 75 µM.
Turning to `O=C(c1ccccc1)N1OCCC1Nc1ccc(Br)cc1` (stereo not given), the TGI in the experiment with SNB-19 CNS is more than 10 µM; with HCC-2998 colon, more than 10 µM; with T-47D breast, more than 10 µM; in the experiment with CCRF-CEM leukemia it was more than 10 µM; in the experiment with NCI-H226 lung it was more than 10 µM; in the experiment with UO-31 renal it was 8.81 µM.
On to `C=CCc1ccccc1CC1(OCC)OC(=O)c2ccccc21` (stereo not given), for which the TGI with SNB-19 CNS, with HCC-2998 colon, in the experiment with T-47D breast, in the experiment on NCI-H226 lung, with UO-31 renal and in the experiment on HOP-92 NSCLC was more than 100 µM each time.
As to `O=C(Cc1ccc(Cl)cc1)Nc1ccc2oc(-c3ccccc3)nc2c1`, the TGI in the experiment on SNB-19 CNS, in the experiment on HCC-2998 colon, with T-47D breast, with CCRF-CEM leukemia, in the experiment on NCI-H226 lung and with HOP-92 NSCLC was more than 100 µM throughout.
Take `C[N+]1(Cc2ccc(Cl)c(Cl)c2)CCCC1C1CCCN(Cc2ccc(Cl)c(Cl)c2)C1` (stereo not given): the TGI with SNB-19 CNS, in the experiment on HCC-2998 colon, in the experiment on T-47D breast, in the experiment with UO-31 renal and in the experiment on HOP-92 NSCLC was more than 100 µM in each case.
For the molecule `CC(C)=c1sc(=C(C)C)c2c1=NC(C)(C)N=2`, the TGI in the experiment on SNB-19 CNS, in the experiment with HCC-2998 colon, in the experiment with T-47D breast and in the experiment on CCRF-CEM leukemia was more than 100 µM throughout.
Turning to `CC(=O)N(C(C)=O)n1c(-c2ccccc2)n[nH]c1=O`, the TGI with SNB-19 CNS, in the experiment on HCC-2998 colon, with CCRF-CEM leukemia, in the experiment with UO-31 renal and with HOP-92 NSCLC was more than 100 µM in each case.
As to `CC(=O)N1C(NN(C)C)CCN1c1ccccc1` (stereo not given), the TGI in the experiment with HCC-2998 colon, with T-47D breast, with CCRF-CEM leukemia and with HOP-92 NSCLC was more than 10 µM throughout.
On to `COC(=O)c1c2c(cc3c1CC1(Cc4ccc(C(C)=O)cc4C1)C3)CCC2` (stereo not given), for which the TGI in the experiment on T-47D breast, in the experiment on CCRF-CEM leukemia, in the experiment with NCI-H226 lung, with UO-31 renal and in the experiment with HOP-92 NSCLC was more than 100 µM each time.
In the case of `O=S(Nc1ccccc1)c1ccc(Cl)c(Cl)c1` (stereo not given), the TGI with SNB-19 CNS is more than 100 µM; in the experiment with HCC-2998 colon, more than 100 µM; in the experiment with T-47D breast, 42.4 µM; in the experiment on CCRF-CEM leukemia, more than 100 µM; with NCI-H226 lung, more than 100 µM; in the experiment on UO-31 renal, more than 100 µM.
As for `COc1ccc(/C=C2\N=C(SC)N(CN3CCCCC3)C2=O)cc1`, the TGI in the experiment on SNB-19 CNS, in the experiment on NCI-H226 lung, in the experiment with UO-31 renal and in the experiment on HOP-92 NSCLC was more than 100 µM throughout.
As to `O=[N+]([O-])c1cc2c(c([N+](=O)[O-])c1)NCc1ccccc1O2`, the TGI in the experiment with HCC-2998 colon, with T-47D breast, in the experiment with CCRF-CEM leukemia, in the experiment on NCI-H226 lung, in the experiment with UO-31 renal and with HOP-92 NSCLC was more than 100 µM throughout.
With `CC(NC(=O)C(Cc1ccc(OCC[N+](C)(C)C)cc1)NC(=O)OC(C)(C)C)C(=O)NC(Cc1ccccc1)C(=O)NCC(N)=O` (stereo not given) (Boc-Y(Ethyl(2-NMe3+))AFG-NH2; configuration not given here), the TGI in the experiment with SNB-19 CNS is 34.3 µM; with HCC-2998 colon, 48.8 µM; with T-47D breast, more than 100 µM; in the experiment on NCI-H226 lung it was 59 µM; with UO-31 renal it was more than 100 µM; in the experiment with HOP-92 NSCLC it was 29.6 µM.
With `COC(=O)C1(C(=O)OC)Cc2ccc(C)cc2C2=C1C(=O)c1ccccc1C2=O`, the TGI is more than 100 µM in the experiment with SNB-19 CNS; 29.9 µM with T-47D breast; 49.4 µM in the experiment on CCRF-CEM leukemia; more than 100 µM in the experiment on NCI-H226 lung; 38.7 µM in the experiment on HOP-92 NSCLC.
On to `S=C1CSc2c(ccc3ccccc23)N1`, for which the TGI in the experiment with SNB-19 CNS, with T-47D breast, with CCRF-CEM leukemia, in the experiment with NCI-H226 lung and with UO-31 renal was more than 100 µM each time.
Take `Oc1cc(-c2ccc(Cl)cc2)cn2c1nc1ccccc12`: the TGI in the experiment on SNB-19 CNS, in the experiment with T-47D breast, with NCI-H226 lung, in the experiment on UO-31 renal and in the experiment on HOP-92 NSCLC was more than 100 µM each time.
Consider `O=c1n(-c2ccccc2)c(=O)n2n1C1Cc3ccccc3C12` (stereo not given), for which the TGI in the experiment on SNB-19 CNS, in the experiment on T-47D breast, with CCRF-CEM leukemia, in the experiment on NCI-H226 lung, with UO-31 renal and in the experiment on HOP-92 NSCLC was more than 100 µM throughout.
Consider `Nc1[nH]c(=S)c2c(N)n[nH]c2c1C(=O)Nc1ccccc1`, for which the TGI in the experiment with SNB-19 CNS, in the experiment on HCC-2998 colon, in the experiment with T-47D breast, in the experiment with NCI-H226 lung, in the experiment on UO-31 renal and with HOP-92 NSCLC was more than 100 µM throughout.
Turning to `CN1C(=O)C(c2c[nH]c3ccccc23)N(C)C(=O)C1c1c[nH]c2ccccc12` (stereo not given), the TGI with HCC-2998 colon, in the experiment on T-47D breast, with CCRF-CEM leukemia, in the experiment on UO-31 renal and with HOP-92 NSCLC was more than 100 µM in each case.
